From ChEMBL document CHEMBL4699540, “Discovery and structure activity relationships of 7-benzyl triazolopyridines as stable, selective, and reversible inhibitors of myeloperoxidase” (Bioorg Med Chem, 2020)

What was measured:
[1] = Metabolic stability in human liver microsomes assessed as compound remaining; format: ADME, Microsome
[2] = Metabolic stability in mouse liver microsomes assessed as compound remaining; format: ADME, Microsome
[3] = Permeability of compound at pH 7.4 by PAMPA assay; format: ADME; details: read-out: permeability
[4] = target: T1, Thyroid peroxidase (Homo sapiens, UniProt P07202); test: Inhibition of TPO (unknown origin) using 3-iodo tyrosine as substrate incubated for 10 mins
T1 sequence (P07202 whole entry): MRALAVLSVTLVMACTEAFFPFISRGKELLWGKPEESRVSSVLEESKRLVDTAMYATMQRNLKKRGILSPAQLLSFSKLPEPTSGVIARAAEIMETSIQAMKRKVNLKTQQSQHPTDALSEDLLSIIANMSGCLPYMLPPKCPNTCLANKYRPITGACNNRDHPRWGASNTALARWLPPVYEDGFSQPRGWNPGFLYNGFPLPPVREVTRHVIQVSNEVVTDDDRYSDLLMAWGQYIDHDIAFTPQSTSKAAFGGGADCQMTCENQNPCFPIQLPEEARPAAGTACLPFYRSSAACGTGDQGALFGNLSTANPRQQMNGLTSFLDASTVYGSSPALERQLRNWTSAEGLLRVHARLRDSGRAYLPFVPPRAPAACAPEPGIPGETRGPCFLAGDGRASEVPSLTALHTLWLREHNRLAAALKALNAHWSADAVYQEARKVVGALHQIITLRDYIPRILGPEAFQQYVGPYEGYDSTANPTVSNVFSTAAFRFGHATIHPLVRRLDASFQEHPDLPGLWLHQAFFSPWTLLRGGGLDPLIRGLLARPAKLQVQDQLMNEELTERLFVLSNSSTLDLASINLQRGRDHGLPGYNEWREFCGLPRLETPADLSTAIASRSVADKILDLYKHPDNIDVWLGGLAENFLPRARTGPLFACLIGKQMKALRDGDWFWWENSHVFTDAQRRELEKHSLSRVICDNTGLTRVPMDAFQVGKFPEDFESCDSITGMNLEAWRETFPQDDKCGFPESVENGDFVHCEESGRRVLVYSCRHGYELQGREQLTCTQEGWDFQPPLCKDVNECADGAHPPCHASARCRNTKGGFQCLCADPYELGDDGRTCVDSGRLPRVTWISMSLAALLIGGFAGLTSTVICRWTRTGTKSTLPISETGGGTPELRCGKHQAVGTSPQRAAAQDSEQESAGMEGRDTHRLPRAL

[5] = target: Cytochrome P450 3A4 (Homo sapiens, UniProt P08684); test: Inhibition of CYP3A4 (unknown origin); format: ADME
Chain of Cytochrome P450 3A4 (P08684 whole entry): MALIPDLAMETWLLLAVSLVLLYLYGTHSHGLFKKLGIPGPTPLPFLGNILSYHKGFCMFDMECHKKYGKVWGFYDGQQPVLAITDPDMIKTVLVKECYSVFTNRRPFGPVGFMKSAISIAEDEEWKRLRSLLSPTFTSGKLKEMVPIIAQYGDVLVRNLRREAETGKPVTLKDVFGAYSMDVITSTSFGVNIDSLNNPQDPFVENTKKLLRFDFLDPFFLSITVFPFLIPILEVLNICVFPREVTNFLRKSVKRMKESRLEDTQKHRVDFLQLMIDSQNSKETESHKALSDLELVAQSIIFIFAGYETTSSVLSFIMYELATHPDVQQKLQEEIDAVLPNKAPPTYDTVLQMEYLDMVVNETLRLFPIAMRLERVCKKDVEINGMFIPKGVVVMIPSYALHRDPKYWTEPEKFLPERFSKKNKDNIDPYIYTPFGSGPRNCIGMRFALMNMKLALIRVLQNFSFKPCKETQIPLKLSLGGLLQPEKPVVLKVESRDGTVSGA

[6] = target: T2, Myeloperoxidase (Homo sapiens, UniProt P05164); test: Inhibition of recombinant human MPO incubated for 10 mins in presence of 240 mM NaCl and 10 uM H2O2 by aminophenyl fluorescein based assay
T2 sequence (P05164 whole entry): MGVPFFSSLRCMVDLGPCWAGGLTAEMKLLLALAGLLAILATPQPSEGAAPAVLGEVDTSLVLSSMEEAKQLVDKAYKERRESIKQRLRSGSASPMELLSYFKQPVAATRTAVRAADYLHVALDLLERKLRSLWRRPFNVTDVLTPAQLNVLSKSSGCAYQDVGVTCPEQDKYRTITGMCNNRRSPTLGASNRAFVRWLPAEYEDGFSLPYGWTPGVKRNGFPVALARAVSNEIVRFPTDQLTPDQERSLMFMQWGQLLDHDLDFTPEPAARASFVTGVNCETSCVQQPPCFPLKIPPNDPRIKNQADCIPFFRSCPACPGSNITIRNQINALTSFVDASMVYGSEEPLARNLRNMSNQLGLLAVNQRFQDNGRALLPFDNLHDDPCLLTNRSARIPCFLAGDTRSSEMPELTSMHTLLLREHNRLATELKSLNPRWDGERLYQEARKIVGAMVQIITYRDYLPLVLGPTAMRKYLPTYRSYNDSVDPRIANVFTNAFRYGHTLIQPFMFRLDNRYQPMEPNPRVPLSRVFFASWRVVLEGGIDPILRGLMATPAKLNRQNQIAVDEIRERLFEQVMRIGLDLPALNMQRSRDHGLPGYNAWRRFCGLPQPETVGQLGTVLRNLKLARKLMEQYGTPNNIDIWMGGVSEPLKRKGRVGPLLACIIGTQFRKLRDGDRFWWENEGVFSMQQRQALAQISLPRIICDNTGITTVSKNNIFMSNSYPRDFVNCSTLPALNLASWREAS

[7] = target: T2, Myeloperoxidase; test: Inhibition of recombinant human MPO incubated for 10 mins by amplex red dye based assay
[8] = Dissociation constant, pKa of the compound; format: physicochemical
[9] = Stability of compound at pH 1 assessed as half life; format: physicochemical; details: buffer
[10] = target: T3, Methylated-DNA--protein-cysteine methyltransferase (Homo sapiens, UniProt P16455); test: Inhibition of human MGMT using 06-benzylguanine as substrate incubated for 30 mins by LC/MS analysis; details: 0.5 h
T3 sequence (P16455 whole entry): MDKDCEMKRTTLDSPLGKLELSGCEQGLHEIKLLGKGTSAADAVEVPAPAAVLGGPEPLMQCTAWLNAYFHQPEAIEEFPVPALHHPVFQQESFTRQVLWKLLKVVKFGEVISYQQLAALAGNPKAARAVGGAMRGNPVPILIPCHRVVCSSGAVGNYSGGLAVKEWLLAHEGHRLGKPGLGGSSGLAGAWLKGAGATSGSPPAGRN

Stabilty [1]	Stabilty [2]	Papp [3]	IC50 [6]	IC50 [7]	SMILES	other results
91%	85%	1.7 ×10⁻⁶ cm/s	–	–	Nc1cc([C@H](CCNC23CCC(c4ccccc4)(CC2)CC3)c2ccccc2)c2nn[nH]c2n1	–
–	–	10.4 ×10⁻⁶ cm/s	–	–	Nc1cc(C(CCNC23CCC(c4ccccc4)(CC2)OC3)c2ccccc2)c2nn[nH]c2n1 (centres undefined)	–
88%	85%	4.3 ×10⁻⁶ cm/s	–	–	Nc1cc([C@H](CCNCc2ccccc2)c2ccccc2)c2nn[nH]c2n1	IC50 [4]: > 50000 nM; IC50 [5]: 12000 nM
31%	1%	125 ×10⁻⁶ cm/s	–	–	Nc1cc([C@H](CCCc2ccccc2)c2ccccc2)c2nn[nH]c2n1	IC50 [5]: 1800 nM
2%	1%	73 ×10⁻⁶ cm/s	–	–	Nc1cc([C@H](CCOCc2ccccc2)c2ccccc2)c2nn[nH]c2n1	IC50 [4]: 6300 nM; IC50 [5]: 2600 nM
73%	45%	2.4 ×10⁻⁶ cm/s	–	–	Nc1cc([C@H](CCN[C@@H]2CC[C@@H](c3ccccc3)C2)c2ccccc2)c2nn[nH]c2n1	–
–	–	21.7 ×10⁻⁶ cm/s	–	–	Nc1cc([C@H](CCN(CCF)C23CCC(c4ccccc4)(CC2)CC3)c2ccccc2)c2nn[nH]c2n1	–
–	–	0.1 ×10⁻⁶ cm/s	–	–	CN(CC[C@H](c1ccccc1)c1cc(N)nc2[nH]nnc12)C12CCC(c3ccccc3)(CC1)CC2	–
–	–	1.3 ×10⁻⁶ cm/s	–	–	Nc1cc([C@H](CCCN2CCC(c3ccccc3)CC2)c2ccccc2)c2nn[nH]c2n1	–
80%	79%	–	–	–	Nc1cc([C@H](CCN[C@H]2CC[C@H](c3ccccc3)CC2)c2ccccc2)c2nn[nH]c2n1	–

Second part, the compound before the results:

SMILES	Stabilty [1]	Stabilty [2]	Papp [3]	IC50 [6]	IC50 [7]	other results
Nc1cc([C@H](CCN[C@@H]2CC[C@@H](c3ccccc3)c3ccccc32)c2ccccc2)c2nn[nH]c2n1	9%	10%	–	–	–	–
Nc1cc([C@H](CCN[C@H]2CCc3ccccc32)c2ccccc2)c2nn[nH]c2n1	65%	51%	6.5 ×10⁻⁶ cm/s	–	–	–
Nc1cc([C@H](CCN[C@H]2C[C@@H](c3ccccc3)c3ccccc32)c2ccccc2)c2nn[nH]c2n1	35%	28%	–	–	–	–
Nc1cc(Cc2ccc3ccccc3c2)c2nn[nH]c2n1	–	–	–	57 nM	188 nM	–
Nc1cc([C@H](CCN[C@@H]2CC[C@@H](c3ccccc3)OC2)c2ccccc2)c2nn[nH]c2n1	–	–	3.7 ×10⁻⁶ cm/s	–	–	–
Nc1cc(Cc2ccccc2F)c2nn[nH]c2n1	–	–	–	32 nM	46 nM	–
Nc1nc(CCc2ccccc2)c2nn[nH]c2n1	–	–	–	7450 nM	9840 nM	–
Nc1nc(NCc2ccccc2)c2nn[nH]c2n1	–	–	–	> 40000 nM	> 40000 nM	pKa [8]: 7.8
Nc1cc(OCc2ccccc2)c2nn[nH]c2n1	–	–	–	–	–	half-life [9]: > 100 h; inhibition (INH) [10]: Active
Nc1cc(Cc2cccc(C(F)(F)F)c2)c2nn[nH]c2n1	–	–	–	683 nM	1430 nM	–
Nc1nc(Cc2ccccc2)c2nn[nH]c2n1	–	–	–	110 nM	428 nM	half-life [9]: 16 h; inhibition (INH) [10]: Not Active; pKa [8]: 6.3
COC(=O)c1cccc(Cc2cc(N)nc3[nH]nnc23)c1	–	–	–	29 nM	17 nM	–
Nc1cc([C@H](Cc2ccccc2)c2ccccc2)c2nn[nH]c2n1	84%	53%	64.8 ×10⁻⁶ cm/s	–	–	IC50 [5]: 3400 nM
Nc1cc([C@H](CCNCc2ccccc2C(F)(F)F)c2ccccc2)c2nn[nH]c2n1	2%	3%	23.7 ×10⁻⁶ cm/s	–	–	–
Nc1cc(Cc2ccc(Cl)cc2)c2nn[nH]c2n1	–	–	–	1700 nM	9300 nM	–
CN(Cc1ccccc1)c1nc(N)nc2[nH]nnc12	–	–	–	> 40000 nM	> 40000 nM	–
Nc1cc(Cc2cccc(-c3ccccc3)c2)c2nn[nH]c2n1	–	–	–	127 nM	77 nM	–
Nc1cc(Cc2cccc(Cl)c2)c2nn[nH]c2n1	–	–	–	16 nM	32 nM	–
